Data set [1] relates to broilers. The settings on record: diet supplemented with pangamic acid; cited from earlier work.
The test system of data set [2] is male grower-finisher pigs exposed to mycoplasmal infections. As to conditions: cited from earlier work.
Data set [3] has as its system weaned piglets (pigs of Rattlerow Seghers origin). Format: in vivo. Details: dG / End BW: unit not given here. The text has this: The setup of the experiments described below is to assess the influence of DMG on the performance in model species for pigs: mortality, feed conversion ratio (FCR), daily growth (dG), body weight (BW).
To examine all the effects associated with the supplementation of dimethylglycine (DMG) in pig feed, a test was setup with pigs of Rattlerow Seghers origin as model species. In this feeding trial 60 weaned piglets of even sex distribution were kept for 42 days. Teeth of piglets were clipped and male piglets were neutered during the first week after birth. At the beginning of the test the piglets were ad random divided per sex in 20 pens with 3 piglets per pen, reckoning even weight distribution at pen level. The piglets were fed with one type of feed from the first day on till the end of the test period. The type of feed was attributed on a random basis to the different housings. The control feed was based on a commercial piglet feed enriched with 5% corn oil to increase the oxidative stress in the feed. The feed had the following composition: 91% dry matter, 5% ash, 18% crude protein, 8% crude fat, 4% crude fibre and 56% other carbohydrate. It has a (calculated) metabolizable energy value of about 13.9 MJ/kg.
In the second type of feed 500mg of DMG was added per kilogram to the same composition of feed as described for the control feed. Over the entire test period, the pigs consumed on average about 290 mg DMG per piglet per day. The housing of the piglets consisted out of slatted floor pig pens of 1.05 m×1.7 m with a total surface of 1.785 m^2. Feed and water were ad libitum available at all times.
Each piglet was weighted after overnight fasts at 4 times, namely at days 0, 14, 29 and 42. The daily growth for the total growth period (dG) as well as daily growth during the three periods (between the start and the fourteenth day (dGI), between the fourteenth and the twenty-ninth day (dGII) and between the twenty-ninth day and the forty-second day (dGIII)) was calculated for each animal. The feed intake for each pen was also measured during these periods. The feed conversion ratio was calculated for each of the pens for both the growth period excluding the first two weeks (FRCII+III) and for the total growth period (FRC). This feed conversion ratio was calculated by dividing the total feed consumption by the weight gain of the piglets during the entire experiment.

The subject of data set [4] is growing broilers. As to conditions: DMG supplementation; cited from earlier work.

“And” between values parts separate entries of the source, which are not always exact repeats. Equal values may be shown once. Read-outs that look alike come from different tables or passages of the source.

Turning to `CN(C)CC(=O)OC[C@@H](O)[C@@H](O)[C@H](O)[C@@H](O)C(=O)O` [pangamic acid, 6-O-(dimethylaminoacetyl)-D-gluconic acid], in data set [1], the body weight gain result is on record as “reduction” and the feed conversion rate entry was “not affected”.

With `C[N+](C)(C)CC(=O)O` [betaine], the “lung area damaged by mycoplasmal infection” value in data set [2] (0.125% betaine in feed) is reported as “significant reduction”. Moreover, the “growth rate and other performance characteristics, such as the feed conversion ratio” value in data set [2] (growing pigs exposed to mycoplasmal infections) is “improvements”.

Take `CN(C)CC(=O)O` [DMG, N,N-dimethylglycine]: the “End BW” value in data set [3] (Barrow, DMG 500 ppm, mean ± SD) is on record as 23.4 ± 0.86; in data set [3] (Gilt, DMG 500 ppm, mean ± SD), 19.3 ± 1.64. Further, the dG in data set [3] (Barrow, DMG 500 ppm, mean ± SD) is 356 ± 20; in data set [3] (Gilt, DMG 500 ppm, mean ± SD), 271 ± 39. For the same molecule, the “FCRII + III” value was 1.71 ± 0.12 in data set [3] (Barrow, excluding the first two weeks, DMG 500 ppm, mean ± SD); 1.74 ± 0.09 in data set [3] (Gilt, excluding the first two weeks, DMG 500 ppm, mean ± SD); 1.72 ± 0.10 in data set [3] (barrows and gilts, growth period excluding the first two weeks, DMG 500 mg/kg feed, mean ± SD). Moreover, the “FCRII + III, DMG-effect” value in data set [3] (Barrow, excluding the first two weeks, vs control) is on record as −6.2%; in data set [3] (Gilt, excluding the first two weeks, vs control) it was −8.9%; in data set [3] (barrows and gilts, excluding the first two weeks, vs control), −7.6%. Moreover, the FCR turned out to be 1.80 ± 0.09 in data set [3] (Barrow, total growth period, DMG 500 ppm, mean ± SD) and 1.93 ± 0.16 in data set [3] (Gilt, total growth period, DMG 500 ppm, mean ± SD). The “FCR, DMG-effect” value in data set [3] (Barrow, total growth period, vs control) is −8.4%; in data set [3] (Gilt, total growth period, vs control) it was −3.6%; in data set [3] (barrows and gilts, total growth period, vs control), −5.9%. Also, the “End BW, DMG-effect” value in data set [3] (Gilt, vs control) is given as −7.0%. In data set [3] (Gilt, vs control), the “dG, DMG-effect” value was −11.0%. This molecule also registered a dGI in data set [3] (barrows and gilts, daily growth day 0-14, DMG 500 mg/kg feed, mean ± SD) of 94 ± 58 g/day. In data set [3] (barrows and gilts, daily growth day 14-29, DMG 500 mg/kg feed, mean ± SD), the dGII turned out to be 365 ± 65 g/day. The molecule further yielded a dGIII in data set [3] (barrows and gilts, daily growth day 29-42, DMG 500 mg/kg feed, mean ± SD) of 491 ± 118 g/day. In addition, in data set [3] (barrows and gilts, day 0-14, vs control), the “dGI, DMG-effect” value was −7.0%. Also, in data set [3] (barrows and gilts, day 14-29, vs control), the “dGII, DMG-effect” value is “+8.1%”. Besides, in data set [3] (barrows and gilts, day 29-42, vs control), the “dGIII, DMG-effect” value is “+2.1%”. In data set [3] (barrows and gilts, day 42, DMG 500 mg/kg feed, mean ± SD), this molecule had an End body weight of 21.4 ± 2.46 kg. Moreover, the “improvement in feed conversion ratio (lower FCR)” value was 7.6% in data set [3] (barrows and gilts, growth period excluding the first two weeks, vs control, given unsigned); 5.9% in data set [3] (barrows and gilts, total growth period, vs control, given unsigned); 8.4% in data set [3] (barrows, total growth period, vs control, given unsigned). For the same molecule, in data set [3] (barrows and gilts, total growth period, DMG 500 mg/kg feed, mean ± SD), the “FCR (feed conversion ratio)” value was 1.87 and 1.87 ± 0.14. In data set [3] (barrows and gilts, total period day 0-42, DMG 500 mg/kg feed, mean ± SD), the “Daily growth (dG)” value is 314 ± 53 g/day. Also, in data set [3] (gilts, growth period excluding the first two weeks, vs control, given unsigned), the “improvement in feed conversion ratio (FCRII+III, lower)” value is given as 8.9%. The “improvement in feed efficiency (lower FCR)” value in data set [3] (gilts, total growth period, vs control, only numerically, given unsigned) is listed as 3.6%. Moreover, the “health of the animals during the experiment (clinical signs of disease)” value in data set [3] (pig, in vivo) is “remained healthy”. The body weight gain entry in data set [4] is given as “not an important impact”. Moreover, in data set [4], the feed conversion rate entry was “decreased”.

(Values after patent US20100183580A1, “TREATMENT OF PIGS FOR REDUCING THE FEED CONVERSION RATIO OR INCREASING THE GROWTH RATE” (priority 2007, published 2010).)
